Assay results: patent US7772255B2, “Method of treating tumors with azaxanthones” (Supratek Pharma, Inc., priority 2005, dated 2010)

Legend:
[1] = test system: B16F10/DX cells; experiment: B16 experimental metastasis model (Example 26); format: in vivo, mouse; settings: B16F10/DX i.v. in C57BL/6 mice; Amlexanox 100 mg/kg daily p.o.; mean±SEM
Procedure: Amlexanox solution for injections was prepared according to the Example 4. B16F10/DX cell (2.0×10^5 cells per animal) were inoculated intravenously in female C57BL//6 mice (6-7 weeks old) and animals were then divided randomly into 4 groups (n=9 except for control group): 1) intact control (n=12, saline); 2) Amlexanox (100 mg/kg, daily p.o. administration); 3) TPT (2.0 mg/kg i.v. administration on day 1, 4, and 7); 5) Amlexanox (daily p.o. 100 mg/kg)+TPT (i.v. 2.0 mg/kg on day 1, 4, and 7). Intact control received oral administration with 10 ml/kg (volume/body weight) of saline, while Amlexanox was administrated orally and daily with a dose of 100 mg/kg in a volume of 10 ml/kg. The treatments were started from the day following the tumor cell implantation until the end of the protocol. However, TPT was administrated intravenously only on day 1, 4, and 7 after tumor implantation. The animal body weight was recorded as an index of treatment toxicity during the experiment.
The data in Table show metastasis formation in the lung in the mice implanted with B16F10/DX cells. The data are expressed as mean±SEM for the number of metastatic sites on the lung surface.

[2] = test system: colorectal cancer; experiment: Amlexanox in combination with irinotecan in colorectal cancer, first-line (Example 9); format: in vivo, human; settings: amlexanox tablets orally plus irinotecan 350 mg/m^2 i.v. every 3 weeks, versus irinotecan alone
Procedure: In this open label randomized multicenter study 150 patients with colorectal cancer who have tumors that cannot be completely removed by surgery are treated by administering irinotecan alone and 150 patients, with colorectal cancer who have tumors that cannot be completely removed by surgery, are treated with combination of irinotecan and 500 mg amlexanox daily with two amlexanox 250 mg tablets, prepared in Example 3, taken twice daily orally to provide a daily dose of […] of amlexanox. Irinotecan was administered to all of the patients at a dose of 350 mg/m^2 once every 3 weeks intravenously during the course of this study. […] In addition, in each of the treated patients, duration of overall response, time to overall response, duration of progression-free survival, overall clinical benefit rate, overall survival rate and quality of life are determined. […] The patients are evaluated by standard WHO and/or RECIST criteria for response and disease status at six week intervals. […] All of the patients during the evaluation period are evaluated by the measurement of the tumors, survival and determination of any progression of the disease in the patient. Stability is measured during each evaluation to determine if there is any increase in the size and amount of tumors from the proceeding period and if there is no subsequent appearance of any other malignancies in the patient. […]

[3] = test system: CSML100 cells; experiment: Spontaneous metastasis model in mice (Example 27); format: in vivo, mouse
Procedure: Amlexanox solution for injections was prepared according to the Example 4. CSML100 cells (2.0×10^6 cells per animal) were inoculated subcutaneously to female A/J mice (6-7 weeks old). The animals were then divided randomly into 2 groups (n=9): Intact control (saline) and Amlexanox treated (100 mg/kg, daily i.v. injection for 10 consecutive days). The treatment started from the day following the tumor implantation. The measurement of tumor size was performed since day 11. On day 24, the tumors were surgically removed. The lung metastasis development was analyzed 40 days after the tumor resection.
The data in Table show spontaneous lung metastasis formation in this tumor model. The data are expressed as mean±SEM for the number of metastatic sites on the lung surface.

[4] = test system: metastatic (Stage III-Stage IV) breast cancer; experiment: Amlexanox monotherapy in advanced metastatic breast cancer resistant to prior chemotherapy (Example 8); format: in vivo, human; settings: 500 mg orally twice daily; baseline until nine months after administration and follow up
Procedure: In this study 44 women patients with metastatic (Stage III-Stage IV) breast cancer who have relapsed following prior cytotoxic chemotherapy regiments containing anthracyclines and/or taxanes are treated by administering 500 mg amlexanox twice daily with two amlexanox 250 mg tablets prepared in Example 3 taken twice daily orally as outpatients. This treatment is carried out for determining the overall (complete and partial) response rate. In this group, the stable disease rate of patients treated with amlexanox is determined. In addition, in each of the treated patients, the time to disease progression is also determined. The results of this study are compared to untreated patients with metastatic (Stage III-Stage IV) breast cancer who have relapsed following the same prior cytotoxic chemotherapy regiment. […] The patients are evaluated by standard WHO and/or RECIST criteria for response and disease status at six week intervals. […] All of the patients during the evaluation period are evaluated by the measurement of the tumors, survival and determination of any progression of the disease in the patient. Stability is measured during each evaluation to determine if there is any increase in the size and amount of tumors from the proceeding period and if there is no subsequent appearance of any other malignancies in the patient. […]

**Q.** For CC(C)c1ccc2oc3nc(N)c(C(=O)O)cc3c(=O)c2c1 [Amlexanox, 2-amino-7-isopropyl-1-azaxanthone-3-carboxylic acid], which “Lung Metastasis Number per Animal” value [1] is on record?
**A.** 71.3 ± 15.5

**Q.** What about the “percentage of patients with beneficial results (overall response rate, progression-free survival, overall survival etc.)” value [2] of the same compound?
**A.** greater percentage of the patients in the group of patients treated with the amlexanox show beneficial results

**Q.** What about the “Lung metastasis number 40 days after s.c. tumor resection” value ([3]; CSML100 s.c. in A/J mice, 100 mg/kg i.v. daily for 10 days, tumors removed day 24, mean±SEM, one animal (26 metastases) excluded) of the same compound?
**A.** 1.00 ± 0.55

**Q.** And the “Subcutaneous tumor size on day 14” value ([3]; CSML100 s.c. in A/J mice, 100 mg/kg i.v. daily injection for 10 days)?
**A.** 0.05 ± 0.02 g

**Q.** What about the “Trial/control × 100%” value ([3]; lung metastasis number 40 days after s.c. tumor resection, 100 mg/kg i.v. daily for 10 days) of the same compound?
**A.** 96.3%

**Q.** What about the “percentage of patients with no progression of the disease by WHO and/or RECIST criteria, compared to the non-treated group” value [4] of the same compound?
**A.** greater percentage of the patients in the group of patients treated with the amlexanox show no progression of the disease
